{"source": "patent US6818620B2", "about": "“Synthetic compounds and compositions with enhanced cell binding” (The Regents of the University of California, priority 1991, dated 2004)", "key": {"cells [1]": {"system": "cells", "assay": "Relative cell-binding activity of synthetic peptides (relative to the SEQ ID NO:1 peptide / P-15, or to collagen)", "type": "cell-based", "conditions": "for Relative Cell-Binding Activity: relative to the inventive peptide illustrated in Examples 1 and 2 (SEQ ID NO:1)", "protocol": "Several more synthetic peptides were prepared and tested for cell binding activity (relative to the SEQ ID NO:1 peptide) all of which have the β-bend feature and which have excellent cell binding activity.\nThe relative efficiencies of some synthetic peptides of this invention for cell-binding activity (relative to the inventive peptide illustrated in Examples 1 and 2) are set out in Table 4."}, "[2]": {"system": "binding of cells to collagen", "assay": "Inhibition of cell binding (attachment) to collagen substrates by peptides added to the medium (Example 2)", "type": "cell-based, human", "conditions": "for % Inhibition of Cell Attachment / % of Maximal Cell Attachment: collagen substrates; for effect on the binding of cells to collagen (in words): equimolar concentrations of several peptides", "protocol": "All media and supplies for tissue culture were obtained from University of California San Francisco Tissue Culture Facility. Cycloheximide was purchased from Sigma Biochemicals, St. Louis, Mo. Rat tail tendon collagen was purified to homogeneity and characterized in our laboratory using published methods. Tissue culture dishes (35 mm diameter, Falcon Plastics) were coated with collagen dissolved in 0.01 N acetic acid to a concentration of 10 μg/ml. The dishes were allowed to air dry overnight under ultraviolet light to maintain sterility.\nPrimary cultures of fibroblast cells from 19-week fetal human dermis were obtained. The cultures were maintained in Eagles minimum essential medium with Earle's salts supplemented with 10% fetal bovine serum. All cells used were in the second passage and were obtained from confluent cultures. Prior to release and dispersion with trypsin, the cells were rinsed three times with phosphate buffered saline. The cell layers were exposed for two minutes to 0.05% trypsin, 0.02% NaEDTA in phosphate buffered saline, and rinsed with serum free medium.\nCollagen related, but non-inventive peptides, (Pro-Pro-Gly)10 and (Pro-Hyp-Gly)10 (wherein Hyp is hydroxy-proline), were obtained from Peninsula Laboratory, Belmont, Calif. Polyproline was purchased from Sigma Biochemicals, St. Louis, Mo. Dynorphin 1-13 and human preangiotensinogen 1-14 were purchased from Bachem, Torrance, Calif. Three different fibronectin related peptide sequences were also obtained from Bachem and were used without further analysis.\nThe inventive peptide (SEQ ID NO:1) was synthesized as described in Example 1 and the same procedures and conditions of Example 1 were used herein.\nIn this experiment to examine the effect of various additives on binding, the additives were added in the medium containing the cells before being transferred to the dishes for the binding assay. It was observed that cell binding to collagen proceeds rapidly in the beginning of the experiment but then slows down after approximately 30 minutes and approximately 70-80% of the cell binding in the absence of a peptide occurs during this time. The effect of the peptide inhibitor on the initial rate of the binding reaction between cells and collagen was examined. The effects of various conditions on cell binding to collagen after 30 minutes were usually compounded.\nAll peptides used had small inhibitory effects on cell binding, although none reached the level of inhibition observed with the inventive peptide. […] Under the conditions of these experiments, polyproline and (PPG)10 exist as single chains in polyproline conformation whereas (P-Hyp-G)10 is a triple helix. The behavior of dynorphin 1-13 and preangio-tensinogen 1-14, peptides similar in size to the inventive peptide, on cell binding was also examined."}, "[3]": {"system": "peripheral blood CD4 and CD8 lymphocytes", "assay": "Inhibition of T-cell binding to collagen-coated dishes (Example 7)", "type": "cell-based", "conditions": "rat tail type I collagen-coated dishes, serum free medium", "protocol": "Cultured T-cells were incubated in collagen-coated dishes in serum free medium, in the presence and absence of inventive peptides. […] Inhibition was examined at several concentrations and times. Maximal inhibition by the peptides occurred at 30 minutes at 37 ? C at a concentration of 35 μM. Thus, the molecular site on type I collagen involved in the interaction with T-cells appears to be the same as involved in fibroblast binding."}, "fibroblast cells": {"system": "fibroblast cells", "assay": "Fibroblast growth and migration into agarose gel containing peptide (Example 3)", "type": "cell-based", "conditions": "100 μg peptide in agarose gel (2 mg/ml); 100,000-200,000 fibroblast cells; 72 hours after plating", "protocol": "Referring to FIGS. 1 and 2, a prior art agarose gel was prepared with an agarose concentration of 2 mg/ml and between 100,000-200,000 fibroblast cells were placed on the gel surface. The agarose gel had been prepared with a suitable fibroblast cell growth medium and the cells placed on the agarose gel were treated with growth medium; however, the cells died within 48 hours, as is illustrated by the FIG. 1 photograph. […] The fibroblast population continued to grow rapidly until cells filled the lattice of the gel.\nDifferent concentrations of the inventive peptides in hydrogels were studied. […] Different types of cells appear to prefer different inventive peptide concentrations in hydrogels, probably due to differences in receptor densities, but in general about 100 μg/ml will be effective."}, "dermal fibroblasts": {"system": "dermal fibroblasts", "assay": "Induction of metalloproteinases and osteodifferentiation in dermal fibroblasts", "type": "cell-based", "description": "This activity is useful for resolving fibrosis. […] This is confirmed by the induction of the following genes: type I collagen, collagenase, alkaline phosphatase, osteonectin, transforming growth factor β (TGF-β), and osteogenin (bone morphogenic protein, […]). These studies confirm that the inventive peptides mimic the biological activity of collagen by binding to specific receptors and inducing biochemical processes characteristic of those induced by collagen itself."}, "[4]": {"system": "fibroblast cells from 19-week fetal human dermis", "assay": "Binding of fibroblast cells to collagen- or peptide-coated glass coverslips and dishes (Example 1)", "type": "cell-based", "conditions": "for Concentration of Cells (Relative Binding of Cells After 15 Minutes): coverslips coated with 50 μl of 1 mg/ml solution, approximately 100,000 fibroblast cells", "protocol": "All media and supplies for tissue culture were obtained from University of California San Francisco Tissue Culture Facility. Cycloheximide was purchased from Sigma Biochemicals, St. Louis, Mo. Rat tail tendon collagen was purified to homogeneity and characterized in our laboratory using published methods. Tissue culture dishes (35 mm diameter, Falcon Plastics) were coated with collagen dissolved in 0.01 N acetic acid to a concentration of 10 μg/ml. The dishes were allowed to air dry overnight under ultraviolet light to maintain sterility. Primary cultures of fibroblast cells from 19-week fetal human dermis were obtained. The cultures were maintained in Eagles minimum essential medium with Earle's salts supplemented with 10% fetal bovine serum. All cells used were in the second passage and were obtained from confluent cultures. Prior to release and dispersion with trypsin, the cells were rinsed three times with phosphate buffered saline. The cell layers were exposed for two minutes to 0.05% trypsin, 0.02% NaEDTA in phosphate buffered saline, and rinsed with serum free medium. Glass coverslips (12-15) were washed in a cleaning solution overnight then rinsed with large amounts of distilled water. The coverslips were then sterilized by drying between sheets of filter paper in an oven at high temperature. The coverslips were then placed in small culture dishes under sterile conditions. A solution of collagen in acetic acid (1 mg/ml) was prepared. Fifty microliters of solution was placed on each of four coverslips, which were then dried in air overnight. A solution of the peptide in acetic acid (1 mg/ml) was prepared. Four coverslips were treated with 50 μl of the solution and then dried as described above. Approximately 100,000 fibroblast cells were pipetted onto four control coverslips and dishes, four collagen coated coverslips and dishes, and four peptide coated coverslips and dishes. After 15 minutes, excess medium containing floating cells was removed from each dish. Fresh medium was added and the dishes were examined under a microscope to determine the extent of binding of cells to the respective coverslips. If the number of bound cells appeared to be different, an assay for DNA in the cells attached to each coverslip was performed. The cells were counted using a hemocytometer."}, "cells [5]": {"system": "cells", "assay": "Relative cell-binding activity of synthetic peptides (relative to the SEQ ID NO:1 peptide / P-15, or to collagen)", "type": "cell-based"}}, "note": "Entries after “also recorded” stand apart in the source; their conditions may differ. No end group written: not given here.", "data": [{"substance": "QGIAGQR [SEQ ID NO:4]", "values": [{"measurement": "Relative Cell-Binding Activity", "setting": "cells [1]", "result": 60}]}, {"substance": "human preangiotensinogen 1-14 (DRVYIHPFHLVIHN)", "values": [{"measurement": "% Inhibition of Cell Attachment", "setting": "[2]; peptide 35 × 10^−6M", "result": 12, "unit": "%"}, {"measurement": "% of Maximal Cell Attachment", "setting": "[2]; peptide 35 × 10^−6M", "result": 88, "unit": "%"}, {"measurement": "effect on the binding of cells to collagen (in words)", "setting": "[2]", "result": "did not affect the binding of cells to collagen to the extent shown by the inventive peptide"}]}, {"substance": "GPQGIAGQR [SEQ ID NO:2]", "values": [{"measurement": "cell binding activity compared with P-15 region / SEQ ID NO:1 peptide (in words)", "setting": "cells [1]", "result": "equally as active as the entire P-15 region"}, {"measurement": "Relative Cell-Binding Activity", "setting": "cells [1]", "result": 100}, {"measurement": "inhibition of interactions between T-cells and collagen", "setting": "[3]", "result": "markedly inhibited"}]}, {"substance": "Dynorphin 1-13 (YGGFLRRIRPKLK)", "values": [{"measurement": "% Inhibition of Cell Attachment", "setting": "[2]; peptide 35 × 10^−6M", "result": 19, "unit": "%"}, {"measurement": "% of Maximal Cell Attachment", "setting": "[2]; peptide 35 × 10^−6M", "result": 81, "unit": "%"}, {"measurement": "effect on the binding of cells to collagen (in words)", "setting": "[2]", "result": "did not affect the binding of cells to collagen to the extent shown by the inventive peptide"}]}, {"substance": "Gly—Ile—Ala—Gly—Gln (GIAGQ; OTHER INFORMATION: synthetic peptide) [SEQ ID NO:6]", "values": [{"measurement": "cell-binding activity (relative to the SEQ ID NO:1 peptide)", "setting": "cells [1]", "result": 70, "unit": "%"}, {"measurement": "Relative Cell-Binding Activity", "setting": "cells [1]", "result": 70}]}, {"substance": "GTPGPQGIAGQRGVV [SEQ ID NO:1]", "values": [{"measurement": "fibroblast growth and migration into agarose gel", "setting": "fibroblast cells", "result": "the cells not only grew, but actually migrated into the gel itself"}, {"measurement": "% Inhibition of Cell Attachment", "setting": "[2]; peptide 7.2 × 10^−6M", "result": 85, "unit": "%"}, {"measurement": "% of Maximal Cell Attachment", "setting": "[2]; peptide 7.2 × 10^−6M", "result": 15, "unit": "%"}, {"measurement": "% Inhibition of Cell Attachment", "setting": "[2]; peptide 36 × 10^−6M", "result": 88, "unit": "%"}, {"measurement": "% of Maximal Cell Attachment", "setting": "[2]; peptide 36 × 10^−6M", "result": 12, "unit": "%"}, {"measurement": "effect on the binding of cells to collagen (in words)", "setting": "[2]", "result": "potent inhibitor of the binding of cells to collagen"}, {"measurement": "induction of metalloproteinases", "setting": "dermal fibroblasts; dermal fibroblasts", "result": "induces metalloproteinases"}, {"measurement": "osteodifferentiation (induction of type I collagen, collagenase, alkaline phosphatase, osteonectin, TGF-β, BMP-7 genes)", "setting": "dermal fibroblasts; in composites with hydroxyapatite, non-osteoblastic (dermal) fibroblasts", "result": "causes osteodifferentiation"}, {"measurement": "inhibition of interactions between T-cells and collagen", "setting": "[3]", "result": "markedly inhibited"}, {"measurement": "increase in cell binding over collagen-coated dishes", "setting": "[4]; 15 minutes", "result": 40, "unit": "%"}, {"measurement": "increase in cell binding over the control (no collagen or peptide) dishes", "setting": "[4]; 15 minutes", "result": 60, "unit": "%"}, {"measurement": "Concentration of Cells (Relative Binding of Cells After 15 Minutes)", "setting": "[4]; 15 minutes", "result": 11.05}, {"measurement": "potency relative to collagen in binding cells to glass or to polystyrene", "setting": "[4]; various other similar studies", "result": "at least twice as potent as collagen"}]}, {"substance": "Gly-Ile-Ala-Gly (FGIAGF; OTHER INFORMATION: synthetic peptide) [SEQ ID NO:9]", "values": [{"measurement": "cell binding enhancement with respect to collagen (in words)", "setting": "cells [5]", "result": "not significantly enhanced with respect to collagen"}]}, {"substance": "Polyproline", "values": [{"measurement": "% Inhibition of Cell Attachment", "setting": "[2]; peptide 1.7 × 10^−6M", "result": 10, "unit": "%"}, {"measurement": "% of Maximal Cell Attachment", "setting": "[2]; peptide 1.7 × 10^−6M", "result": 90, "unit": "%"}, {"measurement": "effect on the binding of cells to collagen (in words)", "setting": "[2]", "result": "did not significantly affect the binding of cells"}]}, {"substance": "QGIAGQ [SEQ ID NO:3]", "values": [{"measurement": "cell binding activity compared with P-15 region / SEQ ID NO:1 peptide (in words)", "setting": "cells [1]", "result": "as active, or more active, than a peptide having the entire P-15 region"}, {"measurement": "Relative Cell-Binding Activity", "setting": "cells [1]", "result": 120}, {"measurement": "inhibition of interactions between T-cells and collagen", "setting": "[3]", "result": "markedly inhibited"}]}, {"substance": "FGIAGF [SEQ ID NO:5]", "values": [{"measurement": "cell binding activity compared with P-15 region / SEQ ID NO:1 peptide (in words)", "setting": "cells [1]", "result": "cell binding activity comparable to that of the peptides of SEQ ID NO: 1, 2, and 3"}, {"measurement": "Relative Cell-Binding Activity", "setting": "cells [1]", "result": 87}]}, {"substance": "Collagen: Rat tail tendon collagen purified to homogeneity [reference compound]", "values": [{"measurement": "Concentration of Cells (Relative Binding of Cells After 15 Minutes)", "setting": "[4]; 15 minutes", "result": 8.59}]}, {"substance": "QGAIAQ [SEQ ID NO:7]", "values": [{"measurement": "Relative Cell-Binding Activity", "setting": "cells [1]", "result": 70}]}, {"substance": "Gln-Gly-Ile-Ala-Gly (QGIAG; OTHER INFORMATION: synthetic peptide) [SEQ ID NO:8]", "values": [{"measurement": "cell-binding activity (relative to the SEQ ID NO:1 peptide)", "setting": "cells [1]", "result": 42, "unit": "%"}, {"measurement": "cell binding enhancement with respect to collagen (in words)", "setting": "cells [5]", "result": "slightly enhanced with respect to collagen, but not significantly enhanced; also recorded: not significantly enhanced with respect to collagen"}]}]}
